Legend:
[1] = tested on: patients suffering from poor kidney function; test: Administration of Treprostinil to humans suffering from kidney malfunction/failure (chronic continuous subcutaneous infusion)
Protocol: The target dose is determined by titration in patients for a clinical effect. The medication is delivered by a small pump that is connected to a catheter placed under the skin. In this manner, increasing dosages of Treprostinil are administered to patients by chronic continuous subcutaneous infusion. […] An example of one target dose is 10 ng/kg/min.

[2] = tested on: human alveolar macrophages; conditions: cited from earlier work
[3] = tested on: patients with class III or class IV heart failure; conditions: cited from earlier work
[4] = tested on: human pulmonary arterial smooth muscle cells; conditions: cited from earlier work

**Q.** Which urine production ([1]; at least two patients with poor kidney function, also on dialysis, treatment over the course of several weeks) does the source give for `CCCCC[C@H](O)CC[C@@H]1[C@H]2Cc3cccc(OCC(=O)[O-])c3C[C@H]2C[C@H]1O.[Na+]` [Treprostinil] here?
**A.** Its urine production is “improved urine production”.

**Q.** And the common side effects ([1]; at peak dose, continuous subcutaneous infusion)?
**A.** Its common side effects is “headache and nausea”.

**Q.** What about the “inflammatory cytokine (tumor necrosis factor-α, interleukin-1β, interleukin-6, granulocyte macrophage colony-stimulating factor) secretion and gene expression” value [2] of the same molecule?
**A.** Its value is “inhibits”.

**Q.** What about the vasodilator effects [3] of the same molecule?
**A.** The vasodilator effects was “vasodilator effects”.

**Q.** And the “proliferation of human pulmonary arterial smooth muscle cells” value [4]?
**A.** Its value is “inhibits proliferation”.

Source: US7199157B2, “Use of treprostinil to improve kidney functions” (United Therapeutics Corporation, priority 2003, dated 2007)
